The results in this text go back to PMC6828813, “Biochemical characterisation of four rhamnosidases from thermophilic bacteria of the genera Thermotoga, Caldicellulosiruptor and Thermoclostridium” (Scientific Reports, 2019).

Series [1] addresses T1, Ts_Ram106B (Thermoclostridium stercorarium, UniProt L7VK28).
T1 construct: gene Cst_c00400
Briefly: product inhibition of pNPR hydrolysis, pNP absorbance at […] nm. Type of series: biochemical. The following applies: read-out: IC50 (at Km or Kprime).

Series [2] concerns the target T2, Tn_Ram106B (Thermotoga neapolitana, UniProt B9K9N8).
T2 construct: gene CTN_1495
The series is described as above. The following applies: read-out: IC50 (at Km or Kprime). Type of series: biochemical.

Series [3] addresses T3, Tm_Ram106B (Thermotoga maritima, UniProt Q9X0G3).
T3 construct: gene TM_1074
The series is described as above. Type of series: biochemical. The following applies: read-out: IC50 (at Km or Kprime).

Series [4] concerns the target T4, Cb_Ram106B (Caldicellulosiruptor bescii, UniProt B9MP87).
T4 construct: gene Athe_2581
The description is as above. The following applies: read-out: IC50 (at Km or Kprime). Type of series: biochemical.

In series [5] the target is T2, Tn_Ram106B. Described as above. Format: biochemical. The following applies: read-out: Ki^b, α^b (mM rhamnose).
Series [6] addresses T3, Tm_Ram106B. Described as above. The following applies: read-out: Ki^b, α^b (mM rhamnose). Type of series: biochemical.
Series [7] deals with T1, Ts_Ram106B. The series is described as above. Format: biochemical. The following applies: read-out: Ki^b, α^b (mM rhamnose).
The target of series [8] is T4, Cb_Ram106B. Briefly: pNP release, absorbance at […] nm, Hill fit. The following applies: Kprime = Khalf^h, Hill coefficient h = 1.64 ± 0.20; 1 mM CoCl2, 100 mM MOPS pH 7 (RT), 70 °C. Format: biochemical.
Substrate in series [9]: C[C@@H]1O[C@@H](Oc2ccc([N+](=O)[O-])cc2)[C@H](O)[C@H](O)[C@H]1O
Briefly: purified protein. Type of series: biochemical, Thermoclostridium stercorarium. The following applies: 1 mM CoCl2, 100 mM MOPS pH 7 (RT), 55 °C.

Substrate in series [10]: C[C@@H]1O[C@@H](Oc2ccc([N+](=O)[O-])cc2)[C@H](O)[C@H](O)[C@H]1O
Briefly: purified protein. Type of series: biochemical, Thermotoga neapolitana. The following applies: 1 mM CoCl2, 100 mM MOPS pH 7 (RT), 80 °C.

Substrate in series [11]: C[C@@H]1O[C@@H](Oc2ccc([N+](=O)[O-])cc2)[C@H](O)[C@H](O)[C@H]1O
Briefly: purified protein. Type of series: biochemical, Thermotoga maritima. The following applies: 1 mM CoCl2, 100 mM MOPS pH 7 (RT), 80 °C.

T4 sequence (B9MP87 entry or part of it): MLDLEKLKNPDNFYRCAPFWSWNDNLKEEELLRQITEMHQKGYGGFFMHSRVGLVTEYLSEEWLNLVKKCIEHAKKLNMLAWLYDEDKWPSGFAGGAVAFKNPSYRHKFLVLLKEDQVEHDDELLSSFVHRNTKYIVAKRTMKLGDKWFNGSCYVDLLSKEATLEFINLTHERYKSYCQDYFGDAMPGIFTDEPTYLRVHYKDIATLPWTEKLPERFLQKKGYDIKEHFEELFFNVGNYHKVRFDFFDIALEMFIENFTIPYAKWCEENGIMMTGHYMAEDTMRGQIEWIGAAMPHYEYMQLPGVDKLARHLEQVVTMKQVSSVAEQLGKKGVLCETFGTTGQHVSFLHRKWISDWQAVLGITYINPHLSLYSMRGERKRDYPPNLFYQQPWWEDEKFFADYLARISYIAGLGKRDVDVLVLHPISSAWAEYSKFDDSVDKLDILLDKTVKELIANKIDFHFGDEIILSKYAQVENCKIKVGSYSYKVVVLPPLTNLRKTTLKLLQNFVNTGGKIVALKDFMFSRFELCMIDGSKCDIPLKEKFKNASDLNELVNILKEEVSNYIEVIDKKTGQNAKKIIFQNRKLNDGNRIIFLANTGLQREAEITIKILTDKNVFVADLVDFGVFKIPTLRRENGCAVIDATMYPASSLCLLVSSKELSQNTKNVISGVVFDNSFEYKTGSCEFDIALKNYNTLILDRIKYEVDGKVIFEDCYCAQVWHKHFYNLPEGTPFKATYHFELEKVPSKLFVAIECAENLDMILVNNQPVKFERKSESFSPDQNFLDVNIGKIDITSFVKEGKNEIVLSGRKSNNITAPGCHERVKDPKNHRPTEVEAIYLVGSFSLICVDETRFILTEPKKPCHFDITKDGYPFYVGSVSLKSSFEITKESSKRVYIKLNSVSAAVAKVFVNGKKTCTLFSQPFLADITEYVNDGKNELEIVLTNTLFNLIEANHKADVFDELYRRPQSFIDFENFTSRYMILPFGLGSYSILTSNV

For the molecule `C[C@@H]1O[C@@H](O)[C@H](O)[C@H](O)[C@H]1O` [rhamnose], the IC50 (in general, the concentration that inhibits the measured activity by half) in series [1] was 8.3 mM; in [2] it was 6.5 mM; in series [3], 4.9 mM; in series [4] it was 5.5 mM. For the same molecule, the Ki (in general, the equilibrium dissociation constant of an inhibitor or competing ligand from its target) in series [5] is 5.5 ± 1.01 mM; in series [6], 2.37 ± 0.13 mM; in series [7], 4.94 ± 0.75 mM.

Regarding `C[C@@H]1O[C@@H](Oc2ccc([N+](=O)[O-])cc2)[C@H](O)[C@H](O)[C@H]1O` [pNPR, para-nitrophenyl-α-L-rhamnopyranoside], in series [8], the “Km or Kprime, h^b,c” value was 1290 ± 230 µM.

B1: Ts_Ram106B (Thermoclostridium stercorarium subsp. stercorarium DSM 8532) (protein)
chain: MFFKNSREEFDESLFRNPTSEYRCAPFWAWNKKLDWEDMERHIEIFKEMGMGGFHIHSRIGLNTPYLSDEFLDYVKKCNAKAKELGMLTWLYDEDKWPSGFGGGFVTKDHNFRSRYLLFSPFYHQSGYYERHIPRENRLGIDGYLSLIAEYKVVLKNGYLSSYKRIESGDNDSAEGETWYAYRVISGDLPWFNNQAYVDTLNKKAVEKFIEVTHEKYFEILGGEFSKSVPAVFTDEPQFVLKQNLPEPDSRQEVGIPYTDLFEESFRQRFGCSFLDSLPEIFWELEGGKFSRIRYWYHEHIAELFASSFADTVGRWCREHNLMLTGHMMAESTLESQTRALGEAMRSYRSFDLPGVDILANKYEYSTVKQAQSVARQFGKAGVLSELYGVTNWDFDFRGHKLQGDWQAAMGVSVRVPHLSWLGMGGESKRDYPAPVDYHSPWYKKYHIIEDHFSRVNVCMTRGVPCVNIAVIHPIESYWLLWGPDSQTKQKRLKLQQEFESIIDWLLFSNLDFDFIAESMVKELYRGSGNRHTQFGDMKYEVLIVPELITIRSETVKMLINHLENGGKVIILGNLPKIIDGDSDRKFDIECLGECVINNSKYDLLDALEPFRQIDIVNRDSSRNENYLYQLRDEAECKWLFIAPGKPVEALKLPEEKVLTVKVRGSYEVWRYDTFTGEKQKIQARGKDGWTYFEQTAYEHDSFLYRLLKTGTNDTTEKSVSSGVGRQVNKGVKYIKYLNGPWEYRLSEKNVLLLDMARYSLDNGEISEREEVLRIDDKIRTKLGYPLRTDSFPQPWLSPAEAECPHTVKLYFEIESETDVHEAELAFEGKGVTAEWNNVAVTDRADGFFIDKCFNVMKLPGIKKGVNQLVLTVPFGEKTDLEWCFITGNFGTCVKGDKVIITNPPERLFFGDVTRQGLSFYGGNITYIVNIDVPEGEMTVEIPQYRGALVEVALDNAKKGDIIFSPYRLNLGYVSQGEHTIEITLYGNRFNMFGQLHNCNRVEKYYGPNTWRTKGNAFAYEYQLREFGIIAAPLIYIE
Turning to B1, in series [9], the K0.5 is 1.90 ± 0.18 mM and the kcat (as a rule, the maximal rate divided by the concentration of active sites) stood at 14.3 ± 0.5 s⁻¹.

B2: Tn_Ram106B (Thermotoga neapolitana DSM 4359) (protein)
chain: MNLKDLENPGVWYRPAPFWSWNDKLCEEELLRQIDEMCEKGYGGFFMHSRVGLVTEYLSDEWMALVKRCAEHARKLGMLAWLYDEDKWPSGFAGGIVPLESDEYRHRFLVLLKKEQIEPGDEILKRIERGNEELFVVKRTMKLGDPWFNGTCYVDLLSKKVTEAFIRSTHEKYRKVCGEFFGSSIPGIFTDEPTYLRVHYPEIPTLPWTDRFPEEFLKRKGYDIREHFEELFFNTKDYMKVRYDFFDVATELFIENFTIPYAKWCEENGISMTGHYMAEDTLRGQVEWIGAAMPHYEYMQIPGVDKLARHLEQVITIKQVSSVAEQLRKKWVLCETFGTTGQHVSFLHRKWIADWQAVLGITYINPHLSLYSMRGERKRDYPPNLFYQQPWWKNEKRFSDYLARLNYLMTQGKREVKVLMIHPITSAWCVYSKFDDEIDKLNESFDRTVKELVSNKIDFHFGDETILSKHGRVSGEKLVVGNCEYDIVLVPPLLNLRRSTVDLLNEFSKNGGKILVLKDGNFFPERVEGRKEKPEFLKRARVFEDLQGLIDSLRDVAAVEVIDKKTGKNAKSVIAQKRLLENGSYIIFLANTDINREVHCQLNLKEEKRHIYAIDIFDFAVVEFSEREFTMHPASSLLIWVTDEEIPSQRRSVISTGVTLKREFELEMAFSEFETEMNGFNVLPVDRVDMFEADGKVFRDEYVSKIWYEFYRLPEGTPFGVVYSFEIREKPEKLFLVVECAENLDRITVNGHEAVFKKKGCTFTEEECFLDVNFGKMDITELVQVGKNIVVLEGKKSNNITGPGCHERVKNPENHRPTEVETIYLVGKFSLVNVDETKYVIDAPKTPDHKDITRSGYPFYVGSFTLRKTFEMKKDPKRRYFLKLNSVRAASVEVFLNEKFVGSLFWEPFMVEITDNLHDGKNELKLVLTNTLFNLIEANHKADVLEETFRRPWSFIDFEHHTDRYILLPFGLENAAVLSSFSP
For the molecule B2, in series [10], the K0.5 came out at 1.47 ± 0.14 mM and the kcat is 146.8 ± 6.1 s⁻¹.

B3: Tm_Ram106B (Thermotoga maritima MSB8) (protein)
chain: MNLKDLENPGVWYRPAPFWSWNDKLCEEELLRQIDEMYEKGYGGFFMHSRVGLVTEYLSEEWMRLVRSCAEHARKLGMLAWLYDEDKWPSGFAGGIVPLEKPEHRHKYLTLLKKDQIKPEDEILKKIERDGEEFYVVKRVMKLGDPWFNGTCYVDLLSRETTEAFLRSTHERYKKSCGDLFRVSIPGIFTDEPTYLRVHHPKETTLPWTERFPEEFLRRKGYDIRDHLEELFFNVKDYMKVRYDFFDVATSLFIENFTIPYAKWCEENGIFMTGHYMAEDTLRGQVEWIGAAMPHYEYMQIPGIDKLARHLEQVVTIKQVSSAAEQLGKKWVLCETFGTTGQHVSFLHRKWIADWQAVLGVTYINPHLSLYSMRGERKRDYPPNLFYQQPWWKNERFLSDYFARLNHIVTQGKREVKVLMIHPISSAWCVYSKFDDEIDKLNELFDTITKELVANKIDFHFGDEMILSKHGRVKEAKLRVGEYEYEVVVLPPLLNLKSSTVELLNSLAENGGKVFVLKDFRYGRFFPERVEGKKGRIEFLKKARVFETLEDLIEELKPFFSVDVLDTKTKENAKAVIAQKRVLEDGSYLLFLANTDIDREVHCHLELKEKRKHTYAIDLFNFKLVELKENEFVMFPASSVCIWVTDEEVPAEDEKVVSTGVLLEKEFDFETALNDFEVKMNSFNVLPVDRVEYFEAGGRVFRNEFVSKIWYEFYRLPDGTPFRVEYSFEVRKKPQKLFLVVECAENLDRITVNGREVRYERKSCIFNEEQNFLDVNFGKMEITDLVREGKNTVVLEGRKENNITGPGCHTRVKDPENHRPTEVETIYLVGDFSLVNVDETRYVIDAPKIPDHRDITRDGYPFYVGSFTLKKIFECKKDPGKRYFLKLNGVEAASVEVILNGKFLGVLFWRPFMIDITDALRNGKNELQLVLTNTLFNLIEANHKADVLEETFRRPKSFIDFEHHTDRYILLPFGLENVAVLSSSSR
As to B3, in [11], the K0.5 is 1.94 ± 0.20 mM and the kcat worked out at 217.8 ± 10.1 s⁻¹.
